Test results: patent US11452727B2, “Combination therapy for treating cancer” (Epizyme, Inc., priority 2017, dated 2022)

Tests used:
Assay in all cases: In vitro combination study with tazemetostat, cell proliferation (Cell Titer Glo)
[1] = tested on: NCI-H2110; conditions: 7 days tazemetostat pre-treatment, 6 days co-treatment with second agent
[2] = tested on: NCI-H1993; conditions: 7 days tazemetostat pre-treatment, 6 days co-treatment with second agent
[3] = tested on: HCC827; conditions: 7 days tazemetostat pre-treatment, 6 days co-treatment with second agent
Description: (§1) Initial proliferation studies were performed to determine the IC50 of tazemetostat in each cell line. For the screen, tazemetostat was used at concentrations bracketed around the IC50 value. If 50% inhibitory concentration was not reached then tazemetostat was tested starting at 10 μM.
(§2) In order to study the effect of dual combination of tazemetostat and a second agent on cell proliferation, cells in log-linear phase growth rate were pre-treated with various concentrations of tazemetostat or DMSO for 7 days in flasks, plated in 384-well plates in the absence of compounds and co-treated on day 8 with tazemetostat or DMSO and the second agent serially diluted for additional 6 days (as depicted in FIG. 1). On day 15, plates were developed for endpoint analysis using Cell Titer Glo to measure ATP content, which was used as an indicator of cell viability. DMSO concentration was kept constant throughout the assay at 0.15% v/v.
(§3) NCI-H1573 was cultured in DMEM: F12 Medium containing the following components: 0.02 mg/ml insulin, 0.01 mg/ml transferrin, 25 nM sodium selenite, 50 nM Hydrocortisone, 1 ng/ml Epidermal Growth Factor, 0.01 mM ethanolamine, 0.01 mM phosphorylethanolamine, 100 pM triiodothyronine, 0.5% (w/v) bovine serum albumin, 0.5 mM sodium pyruvate, 4.5 mM L-glutamine and 1% v/v Pen/Strep.

[4] = tested on: NCI-H1793; conditions: 7 days tazemetostat pre-treatment, 6 days co-treatment with second agent
[5] = tested on: Calu-3; conditions: 7 days tazemetostat pre-treatment, 6 days co-treatment with second agent
Description: as §1, §2, §3

[6] = tested on: NCI-H522; conditions: 7 days tazemetostat pre-treatment, 6 days co-treatment with second agent
Description: as §1, §2

[7] = tested on: NCI-H1299; conditions: 7 days tazemetostat pre-treatment, 6 days co-treatment with second agent
Description: as §1, §2

[8] = tested on: NCI-H2030; conditions: 7 days tazemetostat pre-treatment, 6 days co-treatment with second agent
[9] = tested on: Calu-6; conditions: 7 days tazemetostat pre-treatment, 6 days co-treatment with second agent
[10] = tested on: NCI-H1703; conditions: 7 days tazemetostat pre-treatment, 6 days co-treatment with second agent
Description: as §1, §2

[11] = tested on: A549; conditions: 7 days tazemetostat pre-treatment, 6 days co-treatment with second agent
Description: as §1, §2

[12] = tested on: NCI-H2122; conditions: 7 days tazemetostat pre-treatment, 6 days co-treatment with second agent
[13] = tested on: NCI-H838; conditions: 7 days tazemetostat pre-treatment, 6 days co-treatment with second agent
Description: as §1, §2, §3

[14] = tested on: NCI-H661; conditions: 7 days tazemetostat pre-treatment, 6 days co-treatment with second agent
Description: as §1, §2
(§4) All cell lines were obtained from American Type Culture Collection (ATCC; Rockville, Md.). […] A427, Calu-3, Calu-6 cell lines were cultured in EMEM+10% Fetal bovine serum (FBS)+1% v/v Penicillin/Streptomycin (P/S).

[15] = tested on: NCI-H23; conditions: 7 days tazemetostat pre-treatment, 6 days co-treatment with second agent
Description: as §1, §2, §4

[16] = tested on: NCI-H460; conditions: 7 days tazemetostat pre-treatment, 6 days co-treatment with second agent
[17] = tested on: A427; conditions: A427; 7 days tazemetostat pre-treatment, 6 days co-treatment with second agent
Description: as §1, §2, §4

[18] = tested on: NCI-H1573; conditions: 7 days tazemetostat pre-treatment, 6 days co-treatment with second agent

SMILES | combinatorial effect with tazemetostat (Loewe volume class) [1] | combinatorial effect with tazemetostat (Loewe volume class) [2] | combinatorial effect with tazemetostat (Loewe volume class) [3] | combinatorial effect with tazemetostat (Loewe volume class) [4] | combinatorial effect with tazemetostat (Loewe volume class) [5] | combinatorial effect with tazemetostat (Loewe volume class) [6] | combinatorial effect with tazemetostat (Loewe volume class) [7] | combinatorial effect with tazemetostat (Loewe volume class) [8] | combinatorial effect with tazemetostat (Loewe volume class) [9] | combinatorial effect with tazemetostat (Loewe volume class) [10] | combinatorial effect with tazemetostat (Loewe volume class) [11] | combinatorial effect with tazemetostat (Loewe volume class) [12] | combinatorial effect with tazemetostat (Loewe volume class) [13] | combinatorial effect with tazemetostat (Loewe volume class) [14] | combinatorial effect with tazemetostat (Loewe volume class) [15] | combinatorial effect with tazemetostat (Loewe volume class) [16] | combinatorial effect with tazemetostat (Loewe volume class) [17] | combinatorial effect with tazemetostat (Loewe volume class) [18]
CC(=O)c1c(C)c2cnc(Nc3ccc(N4CCNCC4)cn3)nc2n(C2CCCC2)c1=O [Palbociclib, palbociclib] | Add. (A value between −1 and 1 denoted “additivity”) | Syn. (Loewe volumes greater than 1 denoted “synergy”) | Add. (A value between −1 and 1 denoted “additivity”) | Syn. (Loewe volumes greater than 1 denoted “synergy”) | Add. (A value between −1 and 1 denoted “additivity”) | No eff. | Anta. (volumes <−1 denoted “antagonism”) | Add. (A value between −1 and 1 denoted “additivity”) | Add. (A value between −1 and 1 denoted “additivity”) | Anta. (volumes <−1 denoted “antagonism”) | Add. (A value between −1 and 1 denoted “additivity”) | Anta. (volumes <−1 denoted “antagonism”) | Add. (A value between −1 and 1 denoted “additivity”) | Syn. (Loewe volumes greater than 1 denoted “synergy”) | Syn. (Loewe volumes greater than 1 denoted “synergy”) | Add. (A value between −1 and 1 denoted “additivity”) | Syn. (Loewe volumes greater than 1 denoted “synergy”) | Syn. (Loewe volumes greater than 1 denoted “synergy”)
CN(C)C(=O)c1cc2cnc(Nc3ccc(N4CCNCC4)cn3)nc2n1C1CCCC1 [Ribociclib, ribociclib] | No eff. | Syn. (Loewe volumes greater than 1 denoted “synergy”) | Add. (A value between −1 and 1 denoted “additivity”) | Syn. (Loewe volumes greater than 1 denoted “synergy”) | Syn. (Loewe volumes greater than 1 denoted “synergy”) | No eff. | Anta. (volumes <−1 denoted “antagonism”) | Syn. (Loewe volumes greater than 1 denoted “synergy”) | No eff. | Anta. (volumes <−1 denoted “antagonism”) | Anta. (volumes <−1 denoted “antagonism”) | Anta. (volumes <−1 denoted “antagonism”) | Add. (A value between −1 and 1 denoted “additivity”) | Syn. (Loewe volumes greater than 1 denoted “synergy”) | No eff. | Add. (A value between −1 and 1 denoted “additivity”) | Syn. (Loewe volumes greater than 1 denoted “synergy”) | Syn. (Loewe volumes greater than 1 denoted “synergy”)
Cn1cnc2c(F)c(Nc3ccc(Br)cc3Cl)c(C(=O)NOCCO)cc21 [Selumetinib, selumetinib] | Syn. (Loewe volumes greater than 1 denoted “synergy”) | Syn. (Loewe volumes greater than 1 denoted “synergy”) | Add. (A value between −1 and 1 denoted “additivity”) | Syn. (Loewe volumes greater than 1 denoted “synergy”) | Syn. (Loewe volumes greater than 1 denoted “synergy”) | Syn. (Loewe volumes greater than 1 denoted “synergy”) | Add. (A value between −1 and 1 denoted “additivity”) | Add. (A value between −1 and 1 denoted “additivity”) | Syn. (Loewe volumes greater than 1 denoted “synergy”) | Syn. (Loewe volumes greater than 1 denoted “synergy”) | Add. (A value between −1 and 1 denoted “additivity”) | Anta. (volumes <−1 denoted “antagonism”) | Syn. (Loewe volumes greater than 1 denoted “synergy”) | Syn. (Loewe volumes greater than 1 denoted “synergy”) | Add. (A value between −1 and 1 denoted “additivity”) | Anta. (volumes <−1 denoted “antagonism”) | Syn. (Loewe volumes greater than 1 denoted “synergy”) | Syn. (Loewe volumes greater than 1 denoted “synergy”)
CC(=O)Nc1cccc(-n2c(=O)n(C3CC3)c(=O)c3c(Nc4ccc(I)cc4F)n(C)c(=O)c(C)c32)c1 [Trametinib, trametinib] | Syn. (Loewe volumes greater than 1 denoted “synergy”) | Syn. (Loewe volumes greater than 1 denoted “synergy”) | Syn. (Loewe volumes greater than 1 denoted “synergy”) | Syn. (Loewe volumes greater than 1 denoted “synergy”) | Syn. (Loewe volumes greater than 1 denoted “synergy”) | Syn. (Loewe volumes greater than 1 denoted “synergy”) | Syn. (Loewe volumes greater than 1 denoted “synergy”) | Syn. (Loewe volumes greater than 1 denoted “synergy”) | Add. (A value between −1 and 1 denoted “additivity”) | Syn. (Loewe volumes greater than 1 denoted “synergy”) | Anta. (volumes <−1 denoted “antagonism”) | Anta. (volumes <−1 denoted “antagonism”) | Syn. (Loewe volumes greater than 1 denoted “synergy”) | Add. (A value between −1 and 1 denoted “additivity”) | Add. (A value between −1 and 1 denoted “additivity”) | Anta. (volumes <−1 denoted “antagonism”) | Syn. (Loewe volumes greater than 1 denoted “synergy”) | Syn. (Loewe volumes greater than 1 denoted “synergy”)
